Tests used:
[1] = molecular target: Muscarinic acetylcholine receptor (Rattus norvegicus) (UniProt P08482+P08483+P08485+P08911+P10980); assay: Ratio of IC50 values for inhibition of QNB and OXO-M was measured for efficacy of the compound
[2] = molecular target: Muscarinic acetylcholine receptor; assay: Ability to inhibit [3H]oxotremorine-M (OXO-M) binding in rat cerebral cortex; format: tissue-based
[3] = molecular target: Muscarinic acetylcholine receptor; assay: Ability to inhibit [3H]quinuclidinyl benzilate(QNB) binding in rat cerebral cortex, activity expressed as IC50.; format: tissue-based

Structure (SMILES) | Ratio [1] | IC50 [2] [µM] | IC50 [3] [µM]
Cc1noc([C@H]2CN3CC[C@H]2C3)n1 | 360 | 0.0028 | 1
Cc1nncc(C2CN3CCC2CC3)n1 (stereo not given) | 56 | 0.004 | 0.225
COc1nncc([C@H]2CN3CC[C@H]2C3)n1 | 17 | 0.14 | 2.4
Cc1nncc([C@H]2CN3CC[C@H]2C3)n1 | 105 | 0.0039 | 0.41
Cc1nncc(C23CCCN(CC2)C3)n1 (stereo not given) | 55 | 0.033 | 1.8
CSc1nncc([C@H]2CN3CC[C@H]2C3)n1 | 4.5 | 0.29 | 1.3
c1nncc([C@H]2CN3CC[C@H]2C3)n1 | 370 | 0.0038 | 1.4
Cc1nncc(C23CCN(CC2)C3)n1 | 59 | 0.07 | 4.1
CCc1nncc([C@H]2CN3CC[C@H]2C3)n1 | 9 | 0.046 | 0.41
Nc1nncc([C@H]2CN3CC[C@H]2C3)n1 | 460 | 0.0021 | 0.99
